The record followed here is patent publication US20080015222A1, “New Heterocyclic Amides” (ASTRAZENECA AB, priority 2004, published 2008).

The target in this experiment is T1, hVR1 (Homo sapiens, UniProt Q8NER1).
T1 construct: expressed in transfected cells
Description: hVR1 FLIPR (Fluorometric Image Plate Reader) screening assay, IC50 determination. In kind it is cell-based. The conditions noted are these: CHO cells stably expressing hVR1. Here is the method: 1. hVR1FLIPR (Fluorometric Image Plate Reader) Screening Assay
Transfected CHO cells, stably expessing hVR1 (15,000 cells/well) are seeded in 50 ul media in a black clear bottom 384 plate (Greiner) and grown in a humidified incubator (37° C., 2% CO2), 24-30 hours prior to experiment.
Subsequently, the media is removed from the cell plate by inversion and 2 μM Fluo-4 is added using a multidrop (Labsystems). Following the 40 minutes dye incubation in the dark at 37° C. and 2% CO2, the extracellular dye present is washed away using an EMBLA (Scatron), leaving the cells in 40 ul of assay buffer (1×HBSS, 10 mM D-Glucose, 1 mM CaCl2, 10 mM HEPES, 10×7.5% NaHCO3 and 2.5 mM Probenecid).
FLIPR Assay—IC50 Determination Protocol
For IC50 determinations the fluorescence is read using FLIPR filter 1 (em […]). A cellular baseline recording is taken for 30 seconds, followed by a 20 μl addition of 10, titrated half-log concentrations of the test compound, yielding cellular concentration ranging from 3 μM to 0.1 nM. Data is collected every 2 seconds for a further 5 minutes prior to the addition of a VR1 agonist solution: either 50 nM solution of capsaicin or MES (2-[N-morpholino]ethanesulfonic acid) buffer (pH 5.2), by the FLIPR pipettor. The FLIPR continues to collect data for a further 4 minutes. Compounds having antagonistic properties against the hVR1 will inhibit the increase in intracellular calcium in response to the capsaicin addition. This consequently leading to a reduction in fluorescence signal and providing a reduced fluorescence reading, compared with no compound, buffer controls. Data is exported by the FLIPR program as a sum of fluorescence calculated under the curve upon the addition of capsaicin. Maximum inhibition, Hill slope and IC50 data for each compound are generated.

Where [1] appears, read: agonist low pH (MES buffer pH 5.2).

T1 sequence (Q8NER1 whole entry): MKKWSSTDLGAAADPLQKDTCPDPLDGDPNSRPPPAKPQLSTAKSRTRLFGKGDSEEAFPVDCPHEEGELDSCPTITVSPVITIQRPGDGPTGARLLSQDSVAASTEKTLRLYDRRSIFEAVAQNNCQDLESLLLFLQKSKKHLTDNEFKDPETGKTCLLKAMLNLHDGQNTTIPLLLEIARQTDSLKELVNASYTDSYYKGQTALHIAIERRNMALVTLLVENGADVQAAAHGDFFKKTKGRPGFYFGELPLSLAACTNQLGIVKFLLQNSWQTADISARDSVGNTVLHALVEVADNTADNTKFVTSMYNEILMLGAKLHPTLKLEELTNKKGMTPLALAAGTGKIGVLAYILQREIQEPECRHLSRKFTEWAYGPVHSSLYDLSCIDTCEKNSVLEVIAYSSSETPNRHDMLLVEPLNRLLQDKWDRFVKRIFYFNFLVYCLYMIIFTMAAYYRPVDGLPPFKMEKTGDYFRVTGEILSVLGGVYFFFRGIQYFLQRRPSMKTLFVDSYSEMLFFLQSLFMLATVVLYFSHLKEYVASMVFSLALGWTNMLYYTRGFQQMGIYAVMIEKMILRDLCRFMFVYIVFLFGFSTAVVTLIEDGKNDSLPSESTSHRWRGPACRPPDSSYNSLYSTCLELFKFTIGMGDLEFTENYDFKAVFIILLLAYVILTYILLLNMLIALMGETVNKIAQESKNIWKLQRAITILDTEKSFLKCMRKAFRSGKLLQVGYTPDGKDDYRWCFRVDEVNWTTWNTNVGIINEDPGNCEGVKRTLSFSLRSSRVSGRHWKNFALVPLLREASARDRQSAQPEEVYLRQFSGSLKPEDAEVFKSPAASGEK

Consider `O=C(Cn1cnc2cccc([N+](=O)[O-])c21)Nc1cc(F)c(F)c(F)c1` [Example 14, 2-(7-Nitro-1H-benzimidazol-1-yl)-N-(3,4,5-trifluorophenyl)acetamide], for which the IC50 by setting is: (agonist capsaicin (50 nM)) 48 nM; under setting [1], 108 nM.

As to `COCCOc1cc(NC(=O)Cn2cnc3cccc([N+](=O)[O-])c32)cc(OC)c1` [Example 10, N-[3-Methoxy-5-(2-methoxyethoxy)phenyl]-2-(7-nitro-1H-benzimidazol-1-yl)acetamide], the IC50 worked out at 22 nM (agonist capsaicin (50 nM)) and 45 nM under setting [1].

With `COc1cc(NC(=O)Cn2cnc3cccc(C(C)=O)c32)cc(OC)c1` [Example 35, 2-(7-Acetyl-1H-benzimidazol-1-yl)-N-(3,5-dimethoxyphenyl)acetamide], the IC50 runs as follows: (agonist capsaicin (50 nM)) 518 nM; under setting [1], 508 nM.

For the compound `COc1cc(NC(=O)Cn2cnc3cccc(C(C)=O)c32)cc(C(F)(F)F)c1` [Example 32, 2-(7-Acetyl-1H-benzimidazol-1-yl)-N-[3-methoxy-5-(trifluoromethyl)phenyl]acetamide], the half-maximal inhibitory concentration (IC50) was 77 nM (agonist capsaicin (50 nM)) and 53 nM under setting [1].
